Laboratory results taken from article PMC3556473, “Absorption, metabolism and excretion of [^14C]pomalidomide in humans following oral administration” (Cancer Chemotherapy and Pharmacology, 2012).

Key:
CYP1A2 = biological target: T1, CYP1A2 (Homo sapiens, UniProt P05177); test: In vitro CYP phenotyping (M17 formation from [14C]pomalidomide); type: in vitro ADME
T1 construct: purchased Cypex Ltd (Scotland, UK)
T1 sequence (P05177 1-516): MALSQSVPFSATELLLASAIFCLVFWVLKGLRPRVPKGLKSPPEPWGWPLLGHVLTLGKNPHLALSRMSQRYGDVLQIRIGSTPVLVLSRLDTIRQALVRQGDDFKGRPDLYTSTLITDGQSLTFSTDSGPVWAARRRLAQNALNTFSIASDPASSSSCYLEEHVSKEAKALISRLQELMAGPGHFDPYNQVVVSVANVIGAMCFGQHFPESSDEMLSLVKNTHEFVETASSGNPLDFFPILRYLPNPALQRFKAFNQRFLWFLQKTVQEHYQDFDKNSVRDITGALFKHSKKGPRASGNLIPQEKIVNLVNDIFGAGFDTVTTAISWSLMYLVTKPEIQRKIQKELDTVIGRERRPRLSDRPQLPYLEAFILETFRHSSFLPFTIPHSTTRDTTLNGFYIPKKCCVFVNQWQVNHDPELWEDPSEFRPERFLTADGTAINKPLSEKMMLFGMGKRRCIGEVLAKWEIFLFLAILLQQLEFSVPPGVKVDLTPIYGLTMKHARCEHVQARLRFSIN
Method: (§1) The CYP enzymes responsible for the formation of the hydroxy pomalidomide metabolites were investigated using 10 recombinant human CYP (rCYP) enzymes (CYP1A2, CYP2A6, CYP2B6, CYP2C8, CYP2C9, CYP2C19, CYP2D6, CYP2E1, CYP3A4 and CYP3A5) at 100 pmol/mL. Incubations were prepared using [^14C]pomalidomide (1 μM) in 0.1 M potassium phosphate buffer (pH 7.4) with 4 mM MgCl2, pre-incubated for 5 min at 37 °C. Reactions were initiated by the addition of 1 mM NADPH and continued for 30 or 60 min. Reactions were quenched with two volumes of ice-cold 0.1 % formic acid in acetonitrile containing [^13C5]pomalidomide as internal standard. The samples were mixed and centrifuged, and a subsample of the supernatant evaporated to dryness. The resulting pellet was reconstituted in 0.1 % formic acid in water and acetonitrile (4:1, v/v) and analyzed using HPLC with radiochromatography and/or LC–MS/MS. The rate of formation of the notable human metabolite M17 was calculated and scaled to human in vivo situation using relative abundance method.

CYP2C19 = biological target: T2, CYP2C19 (Homo sapiens, UniProt P33261); test: as above; type: in vitro ADME
T2 construct: purchased Cypex Ltd (Scotland, UK)
Method: as §1

CYP2D6 = biological target: T3, CYP2D6 (Homo sapiens, UniProt P10635); test: as above; type: in vitro ADME
T3 construct: purchased Cypex Ltd (Scotland, UK)
Method: as §1

CYP3A4 = biological target: T4, CYP3A4 (Homo sapiens, UniProt P08684); test: as above; type: in vitro ADME
T4 construct: purchased Cypex Ltd (Scotland, UK)
Method: as §1

T cell IL-2 production = test: Enhancement of primary human T cell IL-2 production (anti-CD3 stimulated, 2-day culture); type: cell-based; conditions: 48 h, anti-CD3 stimulated primary human T cells
Method: Metabolites and hydrolysis products of pomalidomide were tested for pharmacological activity in the following three assay systems: (1) inhibition of MM cell proliferation, (2) enhancement of primary human T cell IL-2 production and (3) inhibition of TNF-α production by lipopolysaccharide (LPS)-stimulated human peripheral blood mononuclear cells (PBMC). For all three assay types, compounds were dissolved in 100 % dimethyl sulfoxide (DMSO) and diluted into complete cell culture medium, consisting of Roswell Park Memorial Institute (RPMI)-1640 plus penicillin, streptomycin and L-glutamine (Mediatech, Manassas, VA). The MM cell proliferation cell culture medium contained 10 % fetal bovine serum, while the primary human cell cultures contained 10 % human AB serum (Invitrogen, Brown Deer, WI). The final DMSO concentration in the cell culture media was 0.25 %.
The human MM cell line OPM-2 was obtained from DSMZ (Braunschweig, Germany), and human MM cell lines U266 B1 and NCI-H929 were obtained from ATCC (Manassas, VA). Inhibition of MM cell proliferation was assessed by the [^3H]-thymidine incorporation assay in a 3-day culture in the presence of compounds in complete medium, as previously described. Primary human T cells were isolated from PBMC by negative selection using the RosetteSep T Cell Enrichment Cocktail (STEMCELL Technologies, Tukwila, WA) according to the manufacturer’s procedures. Costimulation of T cell IL-2 production was measured in a 2-day culture of primary human T cells isolated from healthy donors stimulated with anti-CD3 antibody in the presence of compounds, as previously described. Inhibition of TNF-α production by LPS-stimulated human PBMC was measured in a 1-day culture in the presence of compound, as previously described.

T4 sequence (P08684 whole entry): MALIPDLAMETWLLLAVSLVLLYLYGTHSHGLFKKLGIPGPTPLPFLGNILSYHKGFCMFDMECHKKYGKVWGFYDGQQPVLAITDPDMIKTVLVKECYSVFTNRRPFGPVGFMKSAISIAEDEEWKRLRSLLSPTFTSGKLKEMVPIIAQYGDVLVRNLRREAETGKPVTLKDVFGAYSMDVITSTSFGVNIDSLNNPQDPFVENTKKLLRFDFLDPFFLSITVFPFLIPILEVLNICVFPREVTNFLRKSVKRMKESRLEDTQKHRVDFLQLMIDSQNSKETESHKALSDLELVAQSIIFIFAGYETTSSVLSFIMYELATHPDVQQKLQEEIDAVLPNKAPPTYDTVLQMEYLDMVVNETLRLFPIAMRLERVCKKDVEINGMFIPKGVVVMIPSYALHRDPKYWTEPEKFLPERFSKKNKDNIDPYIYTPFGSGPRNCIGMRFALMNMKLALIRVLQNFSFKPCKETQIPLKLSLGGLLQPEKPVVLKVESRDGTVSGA
T2 sequence (P33261 whole entry): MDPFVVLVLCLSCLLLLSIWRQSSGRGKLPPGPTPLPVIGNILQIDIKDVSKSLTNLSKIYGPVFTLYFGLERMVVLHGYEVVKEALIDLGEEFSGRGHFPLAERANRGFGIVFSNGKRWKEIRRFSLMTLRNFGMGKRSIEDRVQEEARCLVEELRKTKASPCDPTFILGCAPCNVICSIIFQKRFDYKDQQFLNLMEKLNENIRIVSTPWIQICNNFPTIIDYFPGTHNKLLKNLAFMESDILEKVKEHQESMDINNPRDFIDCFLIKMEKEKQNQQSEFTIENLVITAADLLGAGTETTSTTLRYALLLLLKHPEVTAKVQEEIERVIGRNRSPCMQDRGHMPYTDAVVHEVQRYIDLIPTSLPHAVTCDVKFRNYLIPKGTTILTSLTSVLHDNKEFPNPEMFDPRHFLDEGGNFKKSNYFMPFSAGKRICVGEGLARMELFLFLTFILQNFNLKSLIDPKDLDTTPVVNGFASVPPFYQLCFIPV
T3 sequence (P10635 whole entry): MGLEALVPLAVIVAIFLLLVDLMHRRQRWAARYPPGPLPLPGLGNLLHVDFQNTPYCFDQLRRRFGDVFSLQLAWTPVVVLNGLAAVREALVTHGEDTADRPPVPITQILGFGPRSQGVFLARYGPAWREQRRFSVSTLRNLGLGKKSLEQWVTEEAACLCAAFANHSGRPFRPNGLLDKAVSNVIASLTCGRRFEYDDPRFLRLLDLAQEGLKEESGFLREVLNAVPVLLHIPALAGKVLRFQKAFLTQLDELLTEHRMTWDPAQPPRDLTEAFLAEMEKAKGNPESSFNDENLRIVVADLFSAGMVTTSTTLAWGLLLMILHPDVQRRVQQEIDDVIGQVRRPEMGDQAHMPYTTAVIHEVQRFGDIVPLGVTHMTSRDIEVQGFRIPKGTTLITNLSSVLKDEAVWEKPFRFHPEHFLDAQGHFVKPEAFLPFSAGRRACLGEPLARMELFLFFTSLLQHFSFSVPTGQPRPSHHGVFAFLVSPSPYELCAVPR

| relative contribution of isozyme to the hepatic metabolism of pomalidomide (CYP1A2; CYP1A2, scaled by relative abundance in human liver) [%] | relative contribution of isozyme to the hepatic metabolism of pomalidomide (CYP2C19; CYP2C19, scaled by relative abundance in human liver) [%] | relative contribution of isozyme to the hepatic metabolism of pomalidomide (CYP2D6; CYP2D6, scaled by relative abundance in human liver) [%] | relative contribution of isozyme to the hepatic metabolism of pomalidomide (CYP3A4; CYP3A4, scaled by relative abundance in human liver) [%] | EC50 (T cell IL-2 production) [nM] | rate of M17 formation (CYP1A2; rCYP1A2, [14C]pomalidomide 1 μM, 1-h incubation, based on peak area ratios, estimated) [pmol/min/pmol P450] | rate of M17 formation (CYP2C19; rCYP2C19, [14C]pomalidomide 1 μM, 1-h incubation, based on peak area ratios, estimated) [pmol/min/pmol P450] | rate of M17 formation (CYP2D6; rCYP2D6, [14C]pomalidomide 1 μM, 1-h incubation, based on peak area ratios, estimated) [pmol/min/pmol P450] | rate of M17 formation (CYP3A4; rCYP3A4, [14C]pomalidomide 1 μM, 1-h incubation, based on peak area ratios, estimated) [pmol/min/pmol P450] | SMILES |
| --- | --- | --- | --- | --- | --- | --- | --- | --- | --- |
| 54 | 11 | 4 | 30 | 22 |  |  |  |  | Nc1cccc2c1C(=O)N(C1CCC(=O)NC1=O)C2=O (racemic) [Pomalidomide, (RS)-4-amino-2-(2,6-dioxo-piperidin-3-yl)-isoindoline-1,3-dione] |
|  |  |  |  | > 10000 | 0.0027 | 0.0024 | 0.0011 | 0.0008 | Nc1c(O)ccc2c1C(=O)N(C1CCC(=O)NC1=O)C2=O (stereo not shown) [Metabolite M17, 5-hydroxy pomalidomide] |
